Assay results taken from patent publication US9635859B2, “Pesticidal compositions and processes related thereto” (Dow AgroSciences LLC, priority 2012, dated 2017).

System: Beet Armyworm (Spodoptera exigua)
Test: Bioassays on BAW, 128-well diet tray assay
Assay type: in vivo
Settings: percent mortality, second instar larvae, 50 μg/cm^2 on artificial diet, five to seven days, 25° C.; Table 3
Method: Certain molecules disclosed in this document were tested against BAW and CEW and CL using procedures described in the following examples. In the reporting of the results, the “BAW & CEW & CL Rating Table” was used (See Table Section).
Bioassays on BAW (Spodoptera exigua)
Bioassays on BAW were conducted using a 128-well diet tray assay. one to five second instar BAW larvae were placed in each well (3 mL) of the diet tray that had been previously filled with 1 mL of artificial diet to which 50 μg/cm^2 of the test compound (dissolved in 50 μL of 90:10 acetone-water mixture) had been applied (to each of eight wells) and then allowed to dry. Trays were covered with a clear self-adhesive cover, and held at 25° C., 14:10 light-dark for five to seven days. Percent mortality was recorded for the larvae in each well; activity in the eight wells was then averaged. The results are indicated in the table entitled “Table 3: Assay Results” (See Table Section).

Row | SMILES | BAW Rating
1 | Cc1cc(/C=C/C(c2cc(Cl)cc(Cl)c2)C(F)(F)F)ccc1C(=O)NCc1ccccc1F (centres unmarked) [AC9] | A (50-100)
2 | Cc1cc(/C=C/C(c2cc(Cl)cc(Cl)c2)C(F)(F)F)ccc1C(=O)NC1CSC1 (centres unmarked) [AC10] | A (50-100)
3 | Cc1cc(/C=C/C(c2cc(Cl)cc(Cl)c2)C(F)(F)F)ccc1C(=O)NCc1ccccc1 (centres unmarked) [AC11] | A (50-100)
4 | Cc1cc(/C=C/C(c2cc(Cl)cc(Cl)c2)C(F)(F)F)ccc1C(=O)NCc1ccccn1 (centres unmarked) [AC12] | A (50-100)
5 | Cc1cc(/C=C/C(c2cc(Cl)cc(Cl)c2)C(F)(F)F)ccc1C(=O)NC1CS(=O)(=O)C1 (centres unmarked) [AC13] | A (50-100)
6 | Cc1cc(/C=C/C(c2cc(Cl)cc(Cl)c2)C(F)(F)F)ccc1C(=O)NCc1cnc(Cl)s1 (centres unmarked) [AC15] | A (50-100)
7 | Cc1cc(/C=C/C(c2cc(Cl)cc(Cl)c2)C(F)(F)F)ccc1C(=O)NC(C)(C)c1ccccn1 (centres unmarked) [AC16] | A (50-100)
8 | Cc1cc(/C=C/C(c2cc(Cl)cc(Cl)c2)C(F)(F)F)ccc1C(=O)NNc1ccccc1F (centres unmarked) [AC17] | A (50-100)
9 | Cc1cc(/C=C/C(c2cc(Cl)cc(Cl)c2)C(F)(F)F)ccc1C(=O)NCc1ncccn1 (centres unmarked) [AC18] | A (50-100)
10 | Cc1cc(/C=C/C(c2cc(Cl)cc(Cl)c2)C(F)(F)F)ccc1C(=O)NCc1ccoc1 (centres unmarked) [AC20] | A (50-100)
11 | Cc1cc(/C=C/C(c2cc(Cl)c(Cl)c(Cl)c2)C(F)(F)F)ccc1C(=O)NCc1ccc(Cl)nc1 (centres unmarked) [AC22] | A (50-100)
12 | Cc1cc(/C=C/C(c2cc(Cl)c(Cl)c(Cl)c2)C(F)(F)F)ccc1C(=O)NC1CSC1 (centres unmarked) [AC23] | A (50-100)
13 | Cc1cc(/C=C/C(c2cc(Cl)c(Cl)c(Cl)c2)C(F)(F)F)ccc1C(=O)NCc1cnc(Cl)s1 (centres unmarked) [AC26] | A (50-100)
14 | Cc1cc(/C=C/C(c2cc(Cl)c(Cl)c(Cl)c2)C(F)(F)F)ccc1C(=O)NC(C)(C)c1ccccn1 (centres unmarked) [AC27] | A (50-100)
15 | O=C(NCc1ccc(Cl)nc1)c1ccc(/C=C/C(c2cc(Cl)c(Cl)c(Cl)c2)C(F)(F)F)cc1Cl (centres unmarked) [AC28] | A (50-100)
16 | O=C(NC1CSC1)c1ccc(/C=C/C(c2cc(Cl)c(Cl)c(Cl)c2)C(F)(F)F)cc1Cl (centres unmarked) [AC29] | A (50-100)
17 | O=C(NC1CS(=O)(=O)C1)c1ccc(/C=C/C(c2cc(Cl)c(Cl)c(Cl)c2)C(F)(F)F)cc1Cl (centres unmarked) [AC30] | A (50-100)
18 | O=C(NCc1ccc(Cl)nc1)c1ccc(/C=C/C(c2cc(Cl)c(Cl)c(Cl)c2)C(F)(F)F)cc1Br (centres unmarked) [AC31] | A (50-100)
19 | O=C(NC1CSC1)c1ccc(/C=C/C(c2cc(Cl)c(Cl)c(Cl)c2)C(F)(F)F)cc1Br (centres unmarked) [AC32] | A (50-100)
20 | O=C(NC1CS(=O)(=O)C1)c1ccc(/C=C/C(c2cc(Cl)c(Cl)c(Cl)c2)C(F)(F)F)cc1Br (centres unmarked) [AC33] | A (50-100)
21 | O=C(NC1CSC1)c1ccc(/C=C/C(c2cc(Cl)c(Cl)c(Cl)c2)C(F)(F)F)cc1C(F)(F)F (centres unmarked) [AC34] | A (50-100)

Row | SMILES | BAW Rating
22 | O=C(NC1CS(=O)(=O)C1)c1ccc(/C=C/C(c2cc(Cl)c(Cl)c(Cl)c2)C(F)(F)F)cc1C(F)(F)F (centres unmarked) [AC35] | A (50-100)
23 | O=C(NCc1ccc(Cl)nc1)c1ccc(/C=C/C(c2cc(Cl)c(Cl)c(Cl)c2)C(F)(F)F)cc1C(F)(F)F (centres unmarked) [AC36] | A (50-100)
24 | Cc1cc(/C=C/C(c2ccc(Cl)c(Cl)c2)C(F)(F)F)ccc1C(=O)NCc1ccc(Cl)nc1 (centres unmarked) [AC37] | A (50-100)
25 | Cc1cc(/C=C/C(c2cc(Cl)c(F)c(Cl)c2)C(F)(F)F)ccc1C(=O)NCc1ccc(Cl)nc1 (centres unmarked) [AC38] | A (50-100)
26 | Cc1cc(/C=C/C(c2cc(Cl)cc(Cl)c2)C(F)(F)F)ccc1C(=O)NCc1cncnc1 (centres unmarked) [AC39, 4-((E)-3-(3,5-Dichlorophenyl)-4,4,4-trifluorobut-1-enyl)-2-methyl-N-((pyrimidin-5-yl)methyl)benzamide] | A (50-100)
27 | Cc1cc(/C=C/C(c2cc(Cl)cc(Cl)c2)C(F)(F)F)ccc1C(=O)NCC(=O)NC1CC1 (centres unmarked) [AC40] | A (50-100)
28 | Cc1cc(/C=C/C(c2cc(Cl)cc(Cl)c2)C(F)(F)F)ccc1C(=O)NCC(=O)NC1CSC1 (centres unmarked) [AC41] | A (50-100)
29 | Cc1cc(/C=C/C(c2cc(Cl)cc(Cl)c2)C(F)(F)F)ccc1C(=O)NCc1nc2ccccc2s1 (centres unmarked) [AC42] | A (50-100)
30 | Cc1cc(/C=C/C(c2cc(Cl)cc(Cl)c2)C(F)(F)F)ccc1C(=O)NCc1cnccn1 (centres unmarked) [AC43] | A (50-100)
31 | Cc1cc(/C=C/C(c2cc(Cl)cc(Cl)c2)C(F)(F)F)ccc1C(=O)NN(C)c1ccccc1F (centres unmarked) [AC45] | A (50-100)
32 | Cc1cc(/C=C/C(c2cc(Cl)cc(Cl)c2)C(F)(F)F)ccc1C(=O)NCc1ccc(Cl)cc1 (centres unmarked) [AC48] | A (50-100)
33 | O=C(NCc1ccc(Cl)nc1)c1ccc(/C=C/C(c2cc(Cl)cc(Cl)c2)C(F)(F)F)cc1F (centres unmarked) [AC49] | A (50-100)
34 | Cc1cc(/C=C/C(c2cc(Cl)cc(Cl)c2)C(F)(F)F)ccc1C(=O)NCc1nccn1C (centres unmarked) [AC50] | A (50-100)
35 | Cc1cc(/C=C/C(c2cc(Cl)cc(Cl)c2)C(F)(F)F)ccc1C(=O)NCC(=O)N(C)CC(F)(F)F (centres unmarked) [AC51] | A (50-100)
36 | Cc1cc(/C=C/C(c2cc(Cl)c(F)c(Cl)c2)C(F)(F)F)ccc1C(=O)NC1CCOCC1 (centres unmarked) [AC52] | A (50-100)
37 | Cc1cc(/C=C/C(c2cc(Cl)c(F)c(Cl)c2)C(F)(F)F)ccc1C(=O)NCc1ccc(Cl)cn1 (centres unmarked) [AC53] | A (50-100)
38 | Cc1cc(/C=C/C(c2cc(Cl)c(F)c(Cl)c2)C(F)(F)F)ccc1C(=O)NCc1ccnc(Cl)c1 (centres unmarked) [AC54] | A (50-100)
39 | CC(C)(C)OC(=O)CNC(=O)c1ccc(/C=C/C(c2cc(Cl)c(Cl)c(Cl)c2)C(F)(F)F)cc1Br (centres unmarked) [AC58] | A (50-100)
40 | Cc1cc(/C=C/C(c2cc(Cl)cc(Cl)c2)C(F)(F)F)ccc1C(=O)Nc1ccc(Cl)nc1 (centres unmarked) [AC59] | A (50-100)
41 | O=C(NC1CSC1)c1ccc(/C=C/C(c2cc(Cl)cc(Cl)c2)C(F)(F)F)cc1F (centres unmarked) [AC61] | A (50-100)
42 | O=C(CNC(=O)c1ccc(/C=C/C(c2cc(Cl)cc(Cl)c2)C(F)(F)F)cc1F)NCC(F)(F)F (centres unmarked) [AC62] | A (50-100)

Row | SMILES | BAW Rating
43 | O=C(NCc1ccc(Cl)nc1)c1ccc(/C=C/C(c2cc(Cl)c(F)c(Cl)c2)C(F)(F)F)cc1Br (centres unmarked) [AC63] | A (50-100)
44 | O=C(CNC(=O)c1ccc(/C=C/C(c2cc(Cl)c(Cl)c(Cl)c2)C(F)(F)F)cc1Cl)NCC(F)(F)F (centres unmarked) [AC64, (E)-2-Chloro-N-(2-oxo-2-((2,2,2-trifluoroethyl)amino)ethyl)-4-(4,4,4-trifluoro-3-(3,4,5-trichlorophenyl)but-1-en-1-yl)benzamide] | A (50-100)
45 | O=C(NCc1ccc(Cl)nc1)c1ccc(/C=C/C(c2cc(Cl)c(F)c(Cl)c2)C(F)(F)F)cc1F (centres unmarked) [AC65] | A (50-100)
46 | O=C(CNC(=O)c1ccc(/C=C/C(c2cc(Cl)c(Cl)c(Cl)c2)C(F)(F)F)cc1Br)NCC(F)(F)F (centres unmarked) [AC66] | A (50-100)
47 | O=C(NC1CSC1)c1ccc(/C=C/C(c2cc(Cl)c(F)c(Cl)c2)C(F)(F)F)cc1F (centres unmarked) [AC67] | A (50-100)
48 | O=C(CNC(=O)c1ccc(/C=C/C(c2cc(Cl)c(F)c(Cl)c2)C(F)(F)F)cc1F)NCC(F)(F)F (centres unmarked) [AC68] | A (50-100)
49 | Cc1cc(/C=C/C(c2cc(Cl)c(F)c(Cl)c2)C(F)(F)F)ccc1C(=O)NCC(=O)NCC(F)(F)F (centres unmarked) [AC69] | A (50-100)
50 | COc1cc(/C=C/C(c2cc(Cl)c(F)c(Cl)c2)C(F)(F)F)ccc1C(=O)NC1CSC1 (centres unmarked) [AC71] | A (50-100)
51 | CCc1cc(/C=C/C(c2cc(Cl)c(F)c(Cl)c2)C(F)(F)F)ccc1C(=O)NCc1ccc(Cl)nc1 (centres unmarked) [AC72] | A (50-100)
52 | O=C(NCc1ccc(C(F)(F)F)nc1)c1ccc(/C=C/C(c2cc(Cl)c(Cl)c(Cl)c2)C(F)(F)F)cc1Br (centres unmarked) [AC75] | A (50-100)
53 | Cc1cc(/C=C/C(c2cc(Cl)c(F)c(Cl)c2)C(F)(F)F)ccc1C(=O)NCc1cc(Cl)ccn1 (centres unmarked) [AC77] | A (50-100)
54 | Cc1cc(/C=C/C(c2cc(Cl)c(Cl)c(Cl)c2)C(F)(F)F)ccc1C(=O)NCC(=O)NCC(F)(F)F (centres unmarked) [AC78] | A (50-100)
55 | O=C(CNC(=O)c1ccc(/C=C/C(c2cc(Cl)c(F)c(Cl)c2)C(F)(F)F)cc1Br)NCC(F)(F)F (centres unmarked) [AC79, (E)-2-Bromo-4-(3-(3,5-dichloro-4-fluorophenyl)-4,4,4-trifluorobut-1-en-1-yl)-N-(2-oxo-2-((2,2,2-trifluoroethyl)amino)ethyl)benzamide] | A (50-100)
56 | CCc1cc(/C=C/C(c2cc(Cl)c(F)c(Cl)c2)C(F)(F)F)ccc1C(=O)NCC(=O)NCC(F)(F)F (centres unmarked) [AC80] | A (50-100)
57 | Cc1cc(/C=C/C(c2cc(Cl)cc(Cl)c2)C(F)(F)F)ccc1C(=O)NCC(=O)NC1CS(=O)(=O)C1 (centres unmarked) [AC81] | A (50-100)
58 | O=C(NC1CS(=O)(=O)C1)c1ccc(/C=C/C(c2cc(Cl)cc(Cl)c2)C(F)(F)F)cc1F (centres unmarked) [AC83, (E)-4-(3-(3,5-Dichlorophenyl)-4,4,4-trifluorobut-1-en-1-yl)-N-(1,1-dioxidothietan-3-yl)-2-fluorobenzamide] | A (50-100)
59 | O=C(NC1CS(=O)(=O)C1)c1ccc(/C=C/C(c2cc(Cl)c(F)c(Cl)c2)C(F)(F)F)cc1F (centres unmarked) [AC84] | A (50-100)
60 | COc1cc(/C=C/C(c2cc(Cl)c(F)c(Cl)c2)C(F)(F)F)ccc1C(=O)NC1CS(=O)(=O)C1 (centres unmarked) [AC85] | A (50-100)
61 | CCc1cc(/C=C/C(c2cc(Cl)c(F)c(Cl)c2)C(F)(F)F)ccc1C(=O)NC1CS(=O)(=O)C1 (centres unmarked) [AC86] | A (50-100)
62 | O=C(NC1C[S+]([O-])C1)c1ccc(/C=C/C(c2cc(Cl)c(F)c(Cl)c2)C(F)(F)F)cc1F (centres unmarked) [AC87] | A (50-100)
